Source: publication PMC8964499, “An Efficient Approach for the Design and Synthesis of Antimicrobial Peptide-Peptide Nucleic Acid Conjugates” (Frontiers in Chemistry, 2022)
Values joined by “and” are separate entries in the source; they are usually repeats but may differ in a detail not shown here. Equal entries are not always repeated. Non-standard residues stand in square brackets, D forms with d. Residues, ends and D or L forms follow the SMILES beside them. *: point of attachment. X1 = N#Cc1cc(C(=O)*)ccn1; AEEA = NCCOCCOCC(=O)O; Ahx = NCCCCCC(=O)O

How the values were obtained:
A. baumannii 5075R = conditions: polymyxin-resistant isolate; disc diffusion (EUCAST), 40 μM per disk, inoculum McFarland 0.5 (~10^8 CFU/ml), 18 h at 37°C; volume per disk corrected by Mw equivalent to 40 ug of LASP-072
Protocol: (§1) According to the EUCAST guidelines ([Eucast, E.C.O.a.S.T., 2021]), the inoculum was standardized in sterile saline to the density of a McFarland 0.50 ± 0.02 standard, corresponding to ∼10^8 CFU/ml of each isolate. The freshly prepared bacterial suspension was evenly inoculated onto agar plates and disks containing 40 μM of peptide-PNA conjugates were applied within 15 min. The diameter of inhibition zones was measured after incubation for 18 h at 37°C. Polymyxin B (40 μM/disk) was employed as the control.
(§2) The selected peptide sequences are known for their antimicrobial activity ([Le et al., 2017]). Therefore, we evaluated the antimicrobial activity of synthesized peptide-PNA conjugates using the Disc Diffusion Assay (DDA) against a panel of MDR Gram-negative bacteria consisting of P. aeruginosa, A. baumannii, K. pneumoniae, E. coli, including the isolates highly polymyxin-resistant A. baumannii 5075R, and A. baumannii 5075D (Figure 4 and Supplementary Table S1). […] During the synthesis of the next set of peptide-PNA conjugates, we switched the direction of the conjugation handles to investigate the impact on the efficiency of conjugation. […]
Figure S12: The inhibition zone (mm) of all peptides, PNA and peptide-PNA conjugates
against A. baumannii 5075R at a concentration of 40 μM.

E. coli DH5α = conditions: disc diffusion (EUCAST), 40 μM per disk, inoculum McFarland 0.5 (~10^8 CFU/ml), 18 h at 37°C; volume per disk corrected by Mw equivalent to 40 ug of LASP-072
Protocol: as §1
(§3) The selected peptide sequences are known for their antimicrobial activity ([Le et al., 2017]). Therefore, we evaluated the antimicrobial activity of synthesized peptide-PNA conjugates using the Disc Diffusion Assay (DDA) against a panel of MDR Gram-negative bacteria consisting of P. aeruginosa, A. baumannii, K. pneumoniae, E. coli, including the isolates highly polymyxin-resistant A. baumannii 5075R, and A. baumannii 5075D (Figure 4 and Supplementary Table S1). […] During the synthesis of the next set of peptide-PNA conjugates, we switched the direction of the conjugation handles to investigate the impact on the efficiency of conjugation.
Figure S10: The inhibition zone (mm) of all peptides, PNA and peptide-PNA conjugates
against E. coli DH5α at a concentration of 40 μM. […]

[1] = test system: Klebsiella pneumoniae ATCC 700721; conditions: disc diffusion (EUCAST), 40 μM per disk, inoculum McFarland 0.5 (~10^8 CFU/ml), 18 h at 37°C; volume per disk corrected by Mw equivalent to 40 ug of LASP-072
Protocol: as §1, §2
Figure S9: The inhibition zone (mm) of all peptides, PNA and peptide-PNA conjugates
against Klebsiella pneumoniae ATCC 700721 at a concentration of 40 μM.

A. baumannii ATCC 17978 = conditions: disc diffusion (EUCAST), 40 μM per disk, inoculum McFarland 0.5 (~10^8 CFU/ml), 18 h at 37°C; volume per disk corrected by Mw equivalent to 40 ug of LASP-072
Protocol: as §1, §2
Figure S8: The inhibition zone (mm) of all peptides, PNA and peptide-PNA conjugates
against A. baumannii ATCC 17978 at a concentration of 40 μM. […]

P. aeruginosa ATCC 27853 = conditions: disc diffusion (EUCAST), 40 μM per disk, inoculum McFarland 0.5 (~10^8 CFU/ml), 18 h at 37°C; volume per disk corrected by Mw equivalent to 40 ug of LASP-072
Protocol: as §1, §3
Figure S7: The inhibition zone (mm) of all peptides, PNA and peptide-PNA conjugates
against P. aeruginosa ATCC 27853 at a concentration of 40 μM. […]

A. baumannii 5075 = conditions: 40 μM per disk; for Zone of inhibition diameter, Ab 5075: disc diffusion (EUCAST), inoculum McFarland 0.5 (~10^8 CFU/ml), 18 h at 37°C, volume per disk corrected by Mw equivalent to 40 ug of LASP-072
Protocol: as §1, §2
Figure S11: The inhibition zone (mm) of all peptides, PNA and peptide-PNA conjugates
against A. baumannii 5075 at a concentration of 40 μM. […]

A. baumannii 5075D = assay type: cell-based, Acinetobacter baumannii; conditions: polymyxin-dependent resistant isolate; disc diffusion (EUCAST), 40 μM per disk, inoculum McFarland 0.5 (~10^8 CFU/ml), 18 h at 37°C; volume per disk corrected by Mw equivalent to 40 ug of LASP-072
Protocol: as §1
(§4) The selected peptide sequences are known for their antimicrobial activity ([Le et al., 2017]). Therefore, we evaluated the antimicrobial activity of synthesized peptide-PNA conjugates using the Disc Diffusion Assay (DDA) against a panel of MDR Gram-negative bacteria consisting of P. aeruginosa, A. baumannii, K. pneumoniae, E. coli, including the isolates highly polymyxin-resistant A. baumannii 5075R, and A. baumannii 5075D (Figure 4 and Supplementary Table S1). […] Therefore, we further synthesized 10-mer PNAs targeting four bacterial essential genes anti-rpoA LASP-095 ([Abushahba et al., 2016]), anti-murA LASP-096 ([Goh et al., 2009]; [Mondhe et al., 2014]), anti-acpP LASP-097 ([Hansen et al., 2016]), and anti-rpoD LASP-119 ([Bai et al., 2012]; [Alajlouni and Seleem, 2013]). During the synthesis of the next set of peptide-PNA conjugates, we switched the direction of the conjugation handles to investigate the impact on the efficiency of conjugation. Here, PNAs were synthesized with an N-terminal CINA moiety (LASP-095, 096, 097 and 119, Table 1) and a polymyxin analogue (LASP-072, Table 1) was synthesized containing an N-terminal cysteine residue (Supplementary Figure S3).
Table S1: Inhibition zone (mm) for peptide, PNA, and peptide-PNA conjugates
Zone of inhibition diameter (mm)
Mw equivalent Pa Ab Kp Ab Ab

[2] = test system: panel of MDR Gram-negative bacteria consisting of P. aeruginosa, A. baumannii, K. pneumoniae, E. coli; test: Disc diffusion assay, statements for the whole panel; assay type: cell-based; conditions: 40 μM per disk, 18 h at 37°C, statement of the text for the whole panel
Protocol: as §1, §4

| Compound | Zone of inhibition diameter, Ab 5075 R (A. baumannii 5075R) | Zone of inhibition diameter, E. coli DH5α (E. coli DH5α) | Zone of inhibition diameter, Kp ATCC 700721 [1] | Zone of inhibition diameter, Ab ATCC 17978 (A. baumannii ATCC 17978) | Zone of inhibition diameter, Pa ATCC 27853 (P. aeruginosa ATCC 27853) | Zone of inhibition diameter, Ab 5075 (A. baumannii 5075) | Zone of inhibition diameter, Ab 5075 D (A. baumannii 5075D) | Bacterial growth in the presence of the conjugate (polymyxin-dependent phenotype) (A. baumannii 5075; disc diffusion, result in words) | Diameter of inhibition zones over the panel of bacteria [2] |
| --- | --- | --- | --- | --- | --- | --- | --- | --- | --- |
| CINA-PEG-Val-Cys ^d -Lys-Arg-trp-Lys-Lys-Trp-Lys-Arg-Lys-Trp-Lys-Lys-Trp-Cys ^d -Val-NH2 (disulfide) [LASP-088] | 0 mm | 8 mm | 0 mm | 0 mm | 0 mm | 7 mm and 8 mm |  |  |  |
| CINA-PEG-Gly-Lys-Pro-Arg-Pro-Tyr-Ser-Pro-Arg-Pro-Thr-Ser-His-Pro-Arg-Pro-Ile-Arg-Arg-NH2 [LASP-084] | 0 mm | 8 mm | 0 mm | 0 mm | 0 mm |  | 7 mm and 8 mm | greater bacterial growth |  |
| N#Cc1cc(C(=O)NCCCC[C@H](NC(=O)COCCOCCNC(=O)[C@H](CCCNC(=N)N)NC(=O)CCCCCNC(=O)[C@H](CCCNC(=N)N)NC(=O)[C@H](CCCNC(=N)N)NC(=O)CCCCCNC(=O)[C@H](CCCNC(=N)N)NC(=O)[C@H](CCCNC(=N)N)NC(=O)CCCCCNC(=O)[C@H](CCCNC(=N)N)NC(=O)[C@H](CCCNC(=N)N)NC(=O)CCCCCNC(=O)[C@@H](N)CCCNC(=N)N)C(N)=O)ccn1 [LASP-054] (H-R[Ahx]RR[Ahx]RR[Ahx]RR[Ahx]R[AEEA]K(X1)-NH2) | 8 mm | 9 mm | 8 mm | 9 mm | 0 mm | 8 mm | 9 mm |  |  |
| CINA-PEG-OctGly-Dab-Thr-Dab-Dab ^b -Dab-D-Phe-Leu-Dab-Dab-Thr ^b (lariat or depsi) [LASP-026] | 11 mm | 15 mm | 13 mm | 13 mm | 14 mm | 13 mm | 9 mm |  |  |
| Cys-PEG-OctGly-Dab-Thr-Dab-Dab ^b -Dab-D-Phe-Leu-Dab-Dab-Thr ^b (lariat or depsi) [LASP-130, Conjugate of polymyxin analogue LASP-072 and anti-rpoA PNA LASP-095] | 7 mm | 12 mm | 9 mm | 9 mm | 9 mm | 10 mm | 0 mm |  | 11–14 mm |
| CINA-PEG-Val-Cys ^c -Lys-Arg-trp-Lys-Lys-Trp-Lys-Arg-Lys-Trp-Lys-Lys-Trp-Cys ^c -Val-NH2 (sidechain bridge or staple) [LASP-086, Thioether cross-linked cathelicidin-PNA conjugate of LASP-078 and LASP-050] | 0 mm | 0 mm | 0 mm | 0 mm | 0 mm | 0 mm | 0 mm |  | No zone of bacterial growth inhibition |
| H-Arg-Acp-Arg-Arg-Acp-Arg-Arg-Acp-Arg-Arg-Acp-Arg-PEG-Lys (CINA)-NH2 [LASP-058, Conjugate of RXR peptide LASP-054 and PNA LASP-050 by Cys-CINA linkage] | 0 mm | 0 mm | 0 mm | 0 mm | 0 mm | 0 mm | 0 mm |  | No zone of bacterial growth inhibition |
| CINA-PEG-Gly-Lys-Pro-Arg-Pro-Tyr-Ser-Pro-Arg-Pro-Thr-Ser-His-Pro-Arg-Pro-Ile-Arg-Arg-NH2 [LASP-077] | 0 mm | 0 mm | 0 mm | 0 mm | 0 mm | 0 mm | 0 mm |  |  |
